Source: patent publication US7112602B2, “Methods of treating undesired angiogenesis with 2-methyl-EM-138” (The Children's Medical Center Corporation, priority 1998, dated 2006)
Marks after values point to notes of the source that are not given here.

What was measured:
B16-BL6 melanoma cells [1] = test: B16-BL6 melanoma pulmonary metastasis model, intraperitoneal treatment; assay type: in vivo, C57B1/6 mice; conditions: for angiogenesis inhibitory activity (comparison in words): B16-BL6 metastasis studies; for angiogenesis inhibitory activity (comparison in words) / T/C (ratio of lung metastases of treated vs. control animals) / Mean Number of Pulmonary Metastases / % Inhibition / IC50 (50% inhibition of surface metastasis): i.p.; for T/C (ratio of lung metastases of treated vs. control animals): 0.4 mmol/kg in 2.8% DMSO; for T/C (ratio of lung metastases of treated vs. control animals) / % Inhibition: from 72 hours after tumor cells, day 14; for Mean Number of Pulmonary Metastases / % Inhibition: 1.0 ml of 5.0 mg/ml in 2.8% DMSO; for Mean Number of Pulmonary Metastases: four times a day from 72 hours after tumor cells, surface lung metastases counted day 14; for % Inhibition: versus DMSO control, p < 0.01; for IC50 (50% inhibition of surface metastasis): varying doses, average of three experiments, 7-R-(+) tested once at each dose, up to 0.8 mmol/kg; for anti-tumor activity (summary in words): summary of Tables 1 and 2, at the tested doses
Experimental: B16-BL6 melanoma cells (5×10^4) were injected intravenously into the tail veins of C57B1/6 mice. The mice were given intraperitoneal (i.p.) treatments of either 1.0 ml 2.8% DMSO alone (control), 1.0 ml (5.0 mg/ml 2.8% DMSO) 2-phthalimidinoglutaric acid (EM-138) in DMSO, or 1.0 ml (5.0 mg/ml 2.8%) 2-methyl-2-phthalimidinoglutaric acid (2-Me-EM-138) in DMSO four times a day beginning 72 hours after injection of the tumor cells. Fourteen days after tumor cell inoculation, the lungs were removed from the mice and the surface pulmonary metastases were counted.
B16-BL6 melanoma cells (5×10^4) were injected intravenously into the tail veins of C57B1/6 mice. The mice were given intraperitoneal (i.p.) treatments of either 1.0 ml 2.8% DMSO alone (control), 1.0 ml (5.0 mg/ml) DL-2-methyl-2-phthalimidinoglutaric acid (racemate) in 2.8% DMSO, 1.0 ml (5.0 mg/ml) (R)-(+)-2-methyl-2-phthalimidinoglutaric acid (JS-2-13-P1) in 2.8% DMSO, or (S)-(−)-2-methyl-2-phthalimidinoglutaric acid (JS-2-13-P2) in 2.8% DMSO four times a day beginning 72 hours after injection of the tumor cells. Fourteen days after tumor cell inoculation, the lungs were removed from the mice and the surface pulmonary metastases were counted.
B16-BL6 melanoma cells (5×10^4) were injected intravenously into the tail veins of C57B1/6 mice. The mice were given intraperitoneal (i.p.) treatments of one of the following solutions four times a day beginning 72 hours after injection of the tumor cells. [drawing 4] • 1.0 ml of thalidomide in 2.8% DMSO • 1.0 ml of 3′-hydroxy-2-phthalimidinoglutaric acid in 2.8% DMSO (compound 5a) • 1.0 ml of 4′-hydroxy-2-phthalimidinoglutaric acid in 2.8% DMSO (compound 5b) • 1.0 ml of 2-phthalimidinoglutaric acid (EM-138) in 2.8% DMSO (compound 5c) • 1.0 ml of DL-2-methyl-2-phthalimidinoglutaric acid (racemate) in 2.8% DMSO (compound 7) • 1.0 ml of (R)-(+)-2-methyl-2-phthalimidinoglutaric acid (JS-2-13-P1) in 2.8% DMSO (compound 7-R-(+)) • 1.0 ml of (S)-(−)-2-methyl-2-phthalimidinoglutaric acid (JS-2-13-P2) in 2.8% DMSO (compound 7-S-(−))
A dose of 0.4 mmol/kg was used for each compound tested. Fourteen days after tumor cell inoculation, the lungs were removed from the mice and the surface pulmonary metastases were counted.
This experiment was repeated at varying doses. The in the following table represent the average values for three of the experiment.

[2] = test system: vascular endothelial cell proliferation; conditions: endothelial versus tumor cell proliferation in vitro; cited from earlier work
[3] = Racemization of enantiomers; assay type: physicochemical
Resistance to hydrolysis = assay type: physicochemical; conditions: compared with thalidomide
B16-BL6 melanoma cells [4] = test: B16-BL6 melanoma pulmonary metastasis model, oral (gavage) treatment; assay type: in vivo, C57B1/6 mice
Experimental: B16-BL6 melanoma cells (5×10^4) were injected intravenously into the tail veins of C57B1/6 mice. Three days later, the mice received a gavage treatment with 0.8 mmol/kg of 2-phthalimidinoglutaric acid (EM-138). The mice received either a single treatment, five treatments on alternate days, or one treatment every day for eleven days. Fourteen days after tumor cell inoculation, the lungs were removed from the mice and the surface pulmonary metastases were counted. The values shown are the mean of 5 mice per group. The bars on the graph represent the standard deviation.
B16-BL6 melanoma cells (5×10^4) were injected intravenously into the tail veins of C57B1/6 mice. The mice were given a single oral treatment of 2-phthalimidinoglutaric acid (EM-138) of 0.8 mmol/kg. The treatment was initiated one day prior to tumor cells or on day 1, 2, 3, 5, or 7 after tumor cells. Fourteen days after tumor cell inoculation, the lungs were removed from the mice and the surface pulmonary metastases were counted. The values shown are the mean of 5 mice per group. The bars on the graph represent the standard deviation.

SMILES	T/C (ratio of lung metastases of treated vs. control animals) (B16-BL6 melanoma cells [1])	IC50 (50% inhibition of surface metastasis) (B16-BL6 melanoma cells [1])	anti-tumor activity (summary in words) (B16-BL6 melanoma cells [1])	also measured
CC(CCC(=O)O)(C(=O)O)N1Cc2ccccc2C1=O (racemic) [Compound 7, DL-2-methyl-2-phthalimidinoglutaric acid]	0.25	0.2^a mmol/kg	considerably greater inhibitory activity than thalidomide	angiogenesis inhibitory activity (comparison in words) (B16-BL6 melanoma cells [1]): as potent an inhibitor of angiogenesis as EM-138; Mean Number of Pulmonary Metastases (B16-BL6 melanoma cells [1]): 84; % Inhibition (B16-BL6 melanoma cells [1]): 60%
C[C@@](CCC(=O)O)(C(=O)O)N1Cc2ccccc2C1=O [7-R-(+), (R)-(+)-2-methyl-2-phthalimidinoglutaric acid]	0.7	No activity^b	little or no activity	
C[C@](CCC(=O)O)(C(=O)O)N1Cc2ccccc2C1=O [7-S-(−), (S)-(−)-2-methyl-2-phthalimidinoglutaric acid]	0.15	0.1^a mmol/kg		angiogenesis inhibitory activity (comparison in words) (B16-BL6 melanoma cells [1]): greater angiogenesis inhibitory activity than does the (R) isomer
CO[C@@H]1[C@H](OC(=O)NC(=O)CCl)CC[C@]2(CO2)[C@H]1[C@@]1(C)O[C@@H]1CC=C(C)C [AGM-1470]				half-maximal inhibition of endothelial cell proliferation at lower concentration than tumor cell proliferation [2]: 4 logs
O=C(O)CCC(C(=O)O)N1C(=O)c2ccccc2C1O (centres unmarked) [Compound 5a, 3′-hydroxy-2-phthalimidinoglutaric acid]	0.95			
O=C(O)CCC(C(=O)O)N1Cc2c(O)cccc2C1=O (centres unmarked) [Compound 5b, 4′-hydroxy-2-phthalimidinoglutaric acid]	0.9			
O=C(O)CCC(C(=O)O)N1Cc2ccccc2C1=O (centres unmarked) [Compound 5c, 2-phthalimidinoglutaric acid]	0.2	0.2^a mmol/kg	considerably greater inhibitory activity than thalidomide	racemization of enantiomers [3]: readily racemize; Mean Number of Pulmonary Metastases (B16-BL6 melanoma cells [1]): 85; % Inhibition (B16-BL6 melanoma cells [1]): 60%; resistance to hydrolysis (Resistance to hydrolysis): relatively resistant to hydrolysis; inhibition of metastasis (B16-BL6 melanoma cells [4]; dose of 0.8 mmol/kg/day): greater than 90%; inhibition of metastasis (B16-BL6 melanoma cells [4]; single dose): 50%
O=C1CCC(N2C(=O)c3ccccc3C2=O)C(=O)N1 (centres unmarked) [Thalidomide, thalidomide, reference compound]	0.9	3.2^a mmol/kg		
